Measured values reported in article PMC12147034, “Identification of alkynyl nicotinamide HSN748 as a RET solvent-front mutant inhibitor with intracranial efficacy” (RSC Medicinal Chemistry, 2025).
Where a chain is given by its changes, count along the chain named. Where “and” joins values, the source holds several entries; their conditions need not be identical. Equal entries are not always repeated.

Tests used:
[1] = target: T1, BaF3/KIF5B-RET (B/KR) cells, RET WT (Homo sapiens, UniProt P07949+P33176); test: Cell viability assay (CellTiter-Glo, 3 days) in B/KR cells; assay type: cell-based
T1 construct: FLAG; expressed in transfected cells; host or cells: BaF3
T1 sequence (P33176+P07949 with tags, fused parts or gaps): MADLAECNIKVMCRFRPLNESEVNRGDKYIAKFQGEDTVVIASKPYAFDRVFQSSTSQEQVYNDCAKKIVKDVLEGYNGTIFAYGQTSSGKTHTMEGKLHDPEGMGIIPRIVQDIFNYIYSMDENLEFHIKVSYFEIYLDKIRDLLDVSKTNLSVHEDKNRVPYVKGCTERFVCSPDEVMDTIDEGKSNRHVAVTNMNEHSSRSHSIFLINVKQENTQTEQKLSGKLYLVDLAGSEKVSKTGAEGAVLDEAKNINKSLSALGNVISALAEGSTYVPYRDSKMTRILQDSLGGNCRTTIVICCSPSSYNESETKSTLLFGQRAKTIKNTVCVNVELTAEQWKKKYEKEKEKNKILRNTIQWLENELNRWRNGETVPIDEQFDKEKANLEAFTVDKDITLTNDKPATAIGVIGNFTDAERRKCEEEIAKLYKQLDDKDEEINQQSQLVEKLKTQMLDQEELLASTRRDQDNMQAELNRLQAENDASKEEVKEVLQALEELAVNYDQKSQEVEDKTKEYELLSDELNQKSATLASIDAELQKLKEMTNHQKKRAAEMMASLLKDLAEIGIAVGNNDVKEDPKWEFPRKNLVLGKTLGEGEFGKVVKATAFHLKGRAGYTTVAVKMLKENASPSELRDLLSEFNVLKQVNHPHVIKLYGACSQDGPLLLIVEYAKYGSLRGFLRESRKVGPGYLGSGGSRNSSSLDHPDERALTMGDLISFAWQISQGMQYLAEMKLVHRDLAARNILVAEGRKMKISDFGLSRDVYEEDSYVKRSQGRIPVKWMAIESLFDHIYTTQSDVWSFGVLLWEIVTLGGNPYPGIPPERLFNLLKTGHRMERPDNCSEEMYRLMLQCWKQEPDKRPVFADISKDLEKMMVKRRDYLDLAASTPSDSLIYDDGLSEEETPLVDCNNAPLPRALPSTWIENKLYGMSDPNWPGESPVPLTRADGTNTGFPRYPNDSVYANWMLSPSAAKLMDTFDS
Method: (§1) BaF3 cell lines expressing a flag-tagged KIF5B-RET (B/KR) and the KIF5B-RET containing G810C, G810R, G810S, V804M, V804L mutations were as reported.[8,13,17,21–23] […] Infected cells were cultured for two weeks, and cells with high GFP intensity were sorted into a 96-well plate (1 cell/well). After the expansion of growing cell lines, they were screened for a high level of luciferase activity by luminescence imaging after exposure to D-luciferin. IMR-90 cells were from ATCC.
(§2) The TEL-VEGFR2 cDNA was then subcloned into pLentP lentiviral vector.[21] and BaF3/TEL-VEGFR2 (B/TV) cells were generated by infecting BaF3 cells with the lentiviral TEL-VEGFR2 as described. Cell viability assay was performed using CellTiter-Glo reagent (G7573, Promega, Madison, WI, USA) after 3 days of drug treatment as described for BaF3-derived cells and 5 days for IMR-90 cells.

[2] = target: T2, B/KR(G810R) cells, KIF5B-RET G810R (Homo sapiens, UniProt P07949+P33176, G810R); test: Cell viability assay (CellTiter-Glo, 3 days) in B/KR(G810R) cells; assay type: cell-based
T2 construct: FLAG; expressed in transfected cells; host or cells: BaF3
T2 sequence (P07949 713-1063 G810R limits assumed): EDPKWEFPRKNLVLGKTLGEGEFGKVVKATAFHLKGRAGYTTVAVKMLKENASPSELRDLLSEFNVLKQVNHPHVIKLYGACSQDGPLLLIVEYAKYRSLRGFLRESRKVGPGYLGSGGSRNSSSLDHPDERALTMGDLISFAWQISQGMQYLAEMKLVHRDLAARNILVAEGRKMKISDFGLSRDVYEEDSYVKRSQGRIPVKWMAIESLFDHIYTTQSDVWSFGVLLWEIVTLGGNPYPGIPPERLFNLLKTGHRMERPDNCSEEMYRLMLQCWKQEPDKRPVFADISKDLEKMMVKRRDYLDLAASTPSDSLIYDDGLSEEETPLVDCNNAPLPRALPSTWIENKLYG
Method: as §1, §2

[3] = target: T3, B/KR(V804M) cells, KIF5B-RET V804M (Homo sapiens, UniProt P07949+P33176, V804M); test: Cell viability assay (CellTiter-Glo, 3 days) in B/KR(V804M) cells; assay type: cell-based
T3 construct: FLAG; expressed in transfected cells; host or cells: BaF3
T3 sequence (P07949 713-1063 V804M limits assumed): T2 sequence (P07949 713-1063 G810R limits assumed) with V92M, R98G
Method: as §1, §2

[4] = test system: KIF5B-RET-driven lung tumors; test: KIF5B-RET-driven lung tumors in C/KR transgenic mice; assay type: in vivo
Method: For the HSN748 treatment experiment in CCSP-rtTA/tetO-KIF5B-RET(C/KR) transgenic mice,[16] approximately 2 months old male and female C/KR transgenic mice were fed with rodent chow containing 200 mg kg^−1 doxycycline (Dox Diet, Bio-Serv) for 4 months to induce KIF5B-RET-driven lung tumors. For the HSND19 treatment experiment in C/KR transgenic mice, 3 months old male and female C/KR transgenic mice were induced with doxycycline for 6 months as above and then treated with HSND19 or vehicle by oral gavage as indicated in Fig. 3E. At the endpoint, mouse lungs were collected and either fixed in 10% buffered formalin or snap-frozen in liquid nitrogen as described.[16,27]
For histological assessment of lung tumor burden and response to treatment, sections (4 μm thick) of formalin-fixed paraffin-embedded lung tissues were stained with hematoxylin and eosin (H&E). Two H&E-stained tissue sections that were 5 slides apart were scanned using an Axioscan Zeiss slide scanner at 20X magnification. The scanned lung images were then analyzed with the HALO® image analysis program (v3.6, Indica Labs). The random forest machine learning algorithm of HALO® was used to identify tumor vs. normal area by using the tissue classifier add-on. Tumor and normal areas were classified using normal mouse lungs as the reference. Fibrotic stroma was excluded.

SMILES	IC50 [1] [nM]	IC50 [2] [nM]	IC50 [3]	body weight loss ([4]; C/KR transgenic mice)	phospho-RET in lung tissue (immunoblotting) ([4]; C/KR transgenic mice)	median lung tumor area ([4]; HSN748 experiment, 1 month treatment, Dox-induced C/KR mice, vehicle 20.1%) [%]	median lung tumor burden ([4]; HSND19 experiment, 1 month treatment, Dox-induced C/KR mice, vehicle 39%) [%]
CN1CCN(Cc2ccc(NC(=O)c3cncc(C#Cc4cnc5cccnn45)c3)cc2C(F)(F)F)CC1 [HSN748]	4.05 ± 0.18	20.6 ± 1.42	88 nM and 88.2 nM	not observed	suppressed	9.2	–
CCOc1ccc2ncc(C#Cc3cncc(C(=O)Nc4ccc(CN5CCN(C)CC5)c(C(F)(F)F)c4)c3)n2n1 [HSND14, 5-((6-Ethoxyimidazo[1,2-b]pyridazin-3-yl)ethynyl)-N-(4-((4-methylpiperazin-1-yl)methyl)-3-(trifluoromethyl)phenyl)nicotinamide]	4.02 ± 0.19	33 ± 0.67	20 ± 0.89 nM	–	–	–	–
Cc1n[nH]c2ncc(C#Cc3cncc(C(=O)Nc4ccc(CN5CCN(C)CC5)c(C(F)(F)F)c4)c3)cc12 [HSND19, 5-((3-Methyl-1H-pyrazolo[3,4-b]pyridin-5-yl)ethynyl)-N-(4-((4-methylpiperazin-1-yl)methyl)-3-(trifluoromethyl)phenyl)nicotinamide]	1.95 ± 0.12	23.1 ± 1.39	6.52 ± 0.45 nM	–	reduced	–	4.84
